According to US8530650B2, “2, 5-diamino-substituted pyrido [4, 3-D] pyrimidines as autotaxin inhibitors against cancer” (MERCK PATENT GmbH, priority 2008, dated 2013):

Molecular target: T1, recombinant autotaxin (Homo sapiens, UniProt Q13822)
T1 construct: made in house; host or cells: Hi5 insect cells (baculovirus)
Experiment: Autotaxin assay (Amplex Red, LPC substrate)
Assay type: biochemical
Conditions: 75 μM LPC, Amplex Red fluorescence, ten 1:3 dilutions starting at 30 μM
Procedure: Autotaxin activity is measured indirectly by means of Amplex Red Reagent. In this course, Amplex Red is measured as fluorogenic indicator for generated H2O2. Autotaxin converts substrate lysophosphatidylcholine (LPC) to phosphocholine and lysophosphatidylic acid (LPA). After the conversion phosphocholine is reacted with alkaline phosphatase to obtain inorganic phosphate and choline. During the next step choline is oxidized with choline oxidase to yield betaine, whereby H2O2 is generated. H2O2 reacts with Amplex Red Reagent in the presence of peroxidase (Horseradish peroxidase) in an 1:1 stochiometry and yields highly fluorescent resorufin. The generated fluorescence is measured in a reaction-dependent kinetic mode in order to enable subtraction of fluorescence signals of possible other fluorescent compounds that are not part of the reaction from total measured fluorescence.
1.5 μl of a standard solution or of the compounds of the invention are dissolved in 20 mM Hepes pH 7.2 with maximally 7.7% DMSO in individual concentrations. The resulting solution is pre-incubated together with 10 μl (16 ng) of highly purified recombinant autotaxin in a black 384-hole microtiter plate for 30 min at 22° C. Thereafter, the reaction is started through the addition of 5 μL-a-lysophosphatidylcholine (LPC), whereby the final concentration of LPC is 75 μM. The mixture is incubated for 90 min. at 37° C. After the incubation Amplex Red Reagent, peroxidase (Horseradish peroxidase) and choline oxidase are added. The fluorescence is immediately measured at a wavelength of 612 nm with an excitation wavelength of 485 nm in a “Tecan Ultra multimode” fluorescence reader. The activity of autotaxin is indirectly calculated via the amount of detected generated H2O2.
For IC50 analysis, ten serial 1:3 dilutions starting at 30 μM for each compound were run in duplicates.
IC50 values were calculated on normalized data. For normalization, control wells were added to each assay plate and the signal of uninhibited control wells was set to 100%, whereas the signal inhibited by 500 μM C14 LPA, (Avanti Polar Lipids, Cat# 857120P) was set to 0%. Curves were fitted and IC50 values calculated by the following model using proprietary analysis software: Y=Bottom+(100−Bottom)/(1+10^((LogIC50−X)*HillSlope))
Where X is the logarithm of concentration. Y is the response; Y starts at Bottom and goes to Top with a sigmoid shape.
Protein: Recombinant autotaxin (baculoviral Hi5 expression)
Substrate: L-a-lysophosphatidyl choline (chicken egg); Avanti Polar Lipids #830071 P
Standard: C14 LPA, Avanti Polar Lipids, Cat# 857120P
Detection Reagent Amplex Red Reagent; Invitrogen #A12222; dissolved in 1.923 ml of DMSO peroxidase Type VI-A (horseradish), Sigma #P6782; dissolved in 7.45 ml of test buffer, Choline Oxidase; Sigma #C5896; dissolved in 2.47 ml test buffer
Detection Reagent Mix: 1:100 dilution of Amplex Red Regent in test buffer
Test buffer: 200 mM Tris-HCl, Merck, Cat # 1.08219, pH 7.9; 0.1% BSA, lipid free, Roche Cat#775835

IC50	Compound
< 30 µM	O=C(OCc1cccnc1)N1CCN(c2nccc3nc(NCc4ccccc4Cl)ncc23)CC1 [Compound 151, 4-[2-(2-Chloro-benzylamino)-pyrido[4,3-d]pyrimidin-5-yl]-piperazine-1-carboxylic acid pyridin-3-ylmethyl ester]
< 5 µM	O=C(NC1CC1)C1CCCN(c2nccc3nc(NCc4ccccc4Cl)ncc23)C1 (stereo not drawn) [Compound 86, 1-[2-(2-Chloro-benzylamino)-pyrido[4,3-d]pyrimidin-5-yl]-piperidine-3-carboxylic acid cyclopropylamide]
< 30 µM	N#CCC(=O)N1CCN(c2nccc3nc(NCc4ccccc4Cl)ncc23)CC1 [Compound 128, 3-{4-[2-(2-Chloro-benzylamino)-pyrido[4,3-d]pyrimidin-5-yl]-piperazin-1-yl}-3-oxo-propionitrile]
< 30 µM	CS(=O)(=O)CS(=O)(=O)N1CCN(c2nccc3nc(NCc4ccccc4Cl)ncc23)CC1 [Compound 156, (2-Chloro-benzyl)-[5-(4-methanesulfonylmethanesulfonyl-piperazin-1-yl)-pyrido[4,3-d]pyrimidin-2-yl]-amine]
< 30 µM	CNC(=O)C1CCN(c2nccc3nc(NCc4ccccc4Cl)ncc23)CC1 [Compound 139, 1-[2-(2-Chloro-benzylamino)-pyrido[4,3-d]pyrimidin-5-yl]-piperidine-4-carboxylic acid methylamide]
< 10 µM	O=C(CN1CCN(c2nccc3nc(NCc4ccccc4Cl)ncc23)CC1)Nc1cccnc1 [Compound 108, 2-{4-[2-(2-Chloro-benzylamino)-pyrido[4,3-d]pyrimidin-5-yl]-piperazin-1-yl}-N-pyridin-3-yl-acetamide]
< 30 µM	CN(C)C(=O)CCC(=O)N1CCN(c2nccc3nc(NCc4ccccc4Cl)ncc23)CC1 [Compound 125, 4-{4-[2-(2-Chloro-benzylamino)-pyrido[4,3-d]pyrimidin-5-yl]-piperazin-1-yl}-N,N-dimethyl-4-oxo-butyramide]
< 30 µM	O=C(NCc1ccco1)C1CCCN(c2nccc3nc(NCc4ccccc4Cl)ncc23)C1 (stereo not drawn) [Compound 83, 1-[2-(2-Chloro-benzylamino)-pyrido[4,3-d]pyrimidin-5-yl]-piperidine-3-carboxylic acid (furan-2-ylmethyl)-amide]
< 5 µM	CC(C)NC(=O)C1CCCN(c2nccc3nc(NCc4ccccc4Cl)ncc23)C1 (stereo not drawn) [Compound 84, 1-[2-(2-Chloro-benzylamino)-pyrido[4,3-d]pyrimidin-5-yl]-piperidine-3-carboxylic acid isopropylamide]
< 30 µM	COc1ccc(CNc2ncc3c(N4CCCC(C(=O)N5CCN(c6ccccn6)CC5)C4)nccc3n2)cc1 (stereo not drawn) [Compound 95, {1-[2-(4-Methoxy-benzylamino)-pyrido[4,3-d]pyrimidin-5-yl]-piperidin-3-yl}-(4-pyridin-2-yl-piperazin-1-yl)-methanone]
< 30 µM	O=C(NCc1ccco1)N1CCN(c2nccc3nc(NCc4ccccc4Cl)ncc23)CC1 [Compound 117, 4-[2-(2-Chloro-benzylamino)-pyrido[4,3-d]pyrimidin-5-yl]-piperazine-1-carboxylic acid (furan-2-ylmethyl)-amide]
< 30 µM	Clc1ccccc1CNc1ncc2c(N3CCN(c4ncccn4)CC3)nccc2n1 [Compound 112, (2-Chloro-benzyl)-[5-(4-pyrimidin-2-yl-piperazin-1-yl)-pyrido[4,3-d]pyrimidin-2-yl]-amine]
< 10 µM	Fc1ccccc1Nc1nccc2nc(NCc3ccccc3Cl)ncc12 [Compound 100, N2-(2-Chloro-benzyl)-N5-(2-fluoro-phenyl)-pyrido[4,3-d]pyrimidine-2,5-diamine]
< 5 µM	O=C(CCc1c[nH]cn1)N1CCN(c2nccc3nc(NCc4ccccc4Cl)ncc23)CC1 [Compound 122, 1-{4-[2-(2-Chloro-benzylamino)-pyrido[4,3-d]pyrimidin-5-yl]-piperazin-1-yl}-3-(1H-imidazol-4-yl)-propan-1-one]
< 30 µM	CCN(CC)C(=O)C1CCCN(c2nccc3nc(NCc4ccccc4Cl)ncc23)C1 (stereo not drawn) [Compound 91, 1-[2-(2-Chloro-benzylamino)-pyrido[4,3-d]pyrimidin-5-yl]-piperidine-3-carboxylic acid diethylamide]

Further lines, the compound ahead of its results:

Compound	IC50
Cc1cc(F)ccc1Nc1nccc2nc(NCc3ccc(F)cc3)ncc12 [Compound 28, N2-(4-Fluoro-benzyl)-N5-(4-fluoro-2-methyl-phenyl)-pyrido[4,3-d]pyrimidine-2,5-diamine]	< 30 µM
O=C(C1CCN(c2nccc3nc(NCc4ccccc4Cl)ncc23)CC1)N1CCCC1 [Compound 66, {1-[2-(2-Chloro-benzylamino)-pyrido[4,3-d]pyrimidin-5-yl]-piperidin-4-yl}-pyrrolidin-1-yl-methanone]	< 5 µM
COCCNC(=O)C1CCN(c2nccc3nc(NCc4ccccc4OC)ncc23)CC1 [Compound 75, 1-[2-(2-Methoxy-benzylamino)-pyrido[4,3-d]pyrimidin-5-yl]-piperidine-4-carboxylic acid (2-methoxy-ethyl)-amide]	< 30 µM
Fc1ccc(CNc2ncc3c(N4CCCC4)nccc3n2)cc1 [Compound 20, (4-Fluoro-benzyl)-(5-pyrrolidin-1-yl-pyrido[4,3-d]pyrimidin-2-yl)-amine]	< 30 µM
CCN1CCN(C(=O)C2CCN(c3nccc4nc(NCc5ccccc5Cl)ncc34)CC2)CC1 [Compound 72, {1-[2-(2-Chloro-benzylamino)-pyrido[4,3-d]pyrimidin-5-yl]-piperidin-4-yl}-(4-ethyl-piperazin-1-yl)-methanone]	< 5 µM
O=C(NCc1ccco1)C1CCN(c2nccc3nc(NCc4ccccc4Cl)ncc23)CC1 [Compound 65, 1-[2-(2-Chloro-benzylamino)-pyrido[4,3-d]pyrimidin-5-yl]-piperidine-4-carboxylic acid (furan-2-ylmethyl)-amide]	< 5 µM
Clc1ccccc1CNc1ncc2c(N3CCCC3)nccc2n1 [Compound 8, (2-Chloro-benzyl)-(5-pyrrolidin-1-yl-pyrido[4,3-d]pyrimidin-2-yl)-amine]	< 5 µM
COc1ccc(Nc2nccc3nc(NCc4ccc(F)cc4)ncc23)cc1OC [Compound 27, N5-(3,4-Dimethoxy-phenyl)-N2-(4-fluoro-benzyl)-pyrido[4,3-d]pyrimidine-2,5-diamine]	< 30 µM
COc1ccc(CNc2ncc3c(Nc4ccc(F)cc4C)nccc3n2)cc1 [Compound 59, N5-(4-Fluoro-2-methyl-phenyl)-N2-(4-methoxy-benzyl)-pyrido[4,3-d]pyrimidine-2,5-diamine]	< 10 µM
Cc1cc(F)ccc1Nc1nccc2nc(NCc3ccc(Cl)cc3)ncc12 [Compound 49, N2-(4-Chloro-benzyl)-N5-(4-fluoro-2-methyl-phenyl)-pyrido[4,3-d]pyrimidine-2,5-diamine]	< 30 µM
COc1ccccc1CNc1ncc2c(Nc3ccc(F)cc3F)nccc2n1 [Compound 37, N5-(2,4-Difluoro-phenyl)-N2-(2-methoxy-benzyl)-pyrido[4,3-d]pyrimidine-2,5-diamine]	< 30 µM
COc1ccccc1CNc1ncc2c(N3CCC(C(=O)N4CCN(c5ccccn5)CC4)CC3)nccc2n1 [Compound 76, {1-[2-(2-Methoxy-benzylamino)-pyrido[4,3-d]pyrimidin-5-yl]-piperidin-4-yl}-(4-pyridin-2-yl-piperazin-1-yl)-methanone]	< 30 µM
COc1ccc(Nc2nccc3nc(NCc4ccccc4Cl)ncc23)c(OC)c1 [Compound 14, N2-(2-Chloro-benzyl)-N5-(2,4-dimethoxy-phenyl)-pyrido[4,3-d]pyrimidine-2,5-diamine]	< 30 µM
Fc1ccc(CNc2ncc3c(Nc4ccccc4F)nccc3n2)cc1 [Compound 24, N2-(4-Fluoro-benzyl)-N5-(2-fluoro-phenyl)-pyrido[4,3-d]pyrimidine-2,5-diamine]	< 30 µM
COc1ccc(CNc2ncc3c(Nc4ccc(OC)cc4OC)nccc3n2)cc1 [Compound 56, N5-(2,4-Dimethoxy-phenyl)-N2-(4-methoxy-benzyl)-pyrido[4,3-d]pyrimidine-2,5-diamine]	< 30 µM
